From ChEMBL document CHEMBL5252622, “Discovery of a brain-sparing GIRK1/4 inhibitor for pharmacological cardioversion of atrial fibrillation” (Bioorg Med Chem Lett, 2023)
In brackets after ≈: the same amount, converted by molar mass. Activity calls are given as the source filed them. No cut-off for these calls is given here.

What was measured:
[1] = Aqueous solubility of the compound at pH 6.8; assay type: physicochemical
[2] = system: MDCK; assay: Substrate activity at p-glycoprotein in MDCK cells overexpressing MDR1 assessed as efflux ratio of permeability from basolateral to apical side over apical to basolateral side; assay type: cell-based; conditions: Canis lupus familiaris
[3] = Apparent permeability across apical to basolateral side in MDCK cells; assay type: ADME, cell-based, Canis lupus familiaris; conditions: dog
[4] = biological target: T1, Kir3.1/Kir3.4 (Homo sapiens, UniProt P48544+P48549); assay: Inhibition of recombinant human GIRK1/4 channel; assay type: protein-complex assay
T1 sequence (P48549 whole entry): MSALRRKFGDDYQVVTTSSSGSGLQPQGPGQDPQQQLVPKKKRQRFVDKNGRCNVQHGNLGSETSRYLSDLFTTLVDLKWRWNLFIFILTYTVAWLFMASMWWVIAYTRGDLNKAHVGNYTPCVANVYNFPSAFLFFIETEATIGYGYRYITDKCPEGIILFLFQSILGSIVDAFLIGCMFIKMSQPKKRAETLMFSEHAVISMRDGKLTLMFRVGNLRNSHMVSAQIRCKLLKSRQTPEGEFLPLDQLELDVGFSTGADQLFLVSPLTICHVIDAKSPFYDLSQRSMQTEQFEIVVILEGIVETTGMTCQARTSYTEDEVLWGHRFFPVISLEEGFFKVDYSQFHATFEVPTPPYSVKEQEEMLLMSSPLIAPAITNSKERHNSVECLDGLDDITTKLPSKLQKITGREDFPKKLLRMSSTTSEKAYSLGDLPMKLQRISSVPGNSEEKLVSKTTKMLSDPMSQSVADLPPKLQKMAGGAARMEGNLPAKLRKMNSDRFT
T1 sequence (P48544 whole entry): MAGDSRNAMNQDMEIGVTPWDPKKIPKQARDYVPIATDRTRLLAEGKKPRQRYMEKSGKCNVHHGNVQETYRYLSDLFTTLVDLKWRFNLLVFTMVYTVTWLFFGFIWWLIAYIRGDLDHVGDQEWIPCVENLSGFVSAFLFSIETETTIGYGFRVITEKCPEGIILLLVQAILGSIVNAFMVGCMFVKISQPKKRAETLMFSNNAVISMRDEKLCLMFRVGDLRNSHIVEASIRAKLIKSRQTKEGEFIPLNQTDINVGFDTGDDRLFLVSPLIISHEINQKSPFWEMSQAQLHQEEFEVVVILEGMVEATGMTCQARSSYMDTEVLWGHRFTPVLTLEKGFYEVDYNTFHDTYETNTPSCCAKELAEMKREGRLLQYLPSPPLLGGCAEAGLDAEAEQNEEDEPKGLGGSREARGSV

[5] = Terminal half-life in iv dosed rat; assay type: ADME, organism-based; conditions: in vivo, read-out: beta t1/2 (converted)
[6] = Clearance in iv dosed rat; assay type: ADME, organism-based; conditions: in vivo
[7] = species: Cavia porcellus; assay: Effect on fingolimod-induced shortening of AERP in guinea pig model assessed as restoration of shortened AERP measured at 30 to 60 mins; assay type: functional; conditions: time 30-60 min
[8] = system: Cavia porcellus; assay: Effect on AERP in guinea pig assessed as increase in AERP interval at 3 mg/kg, iv measured for 60 mins; assay type: functional, organism-based
[9] = system: Cavia porcellus; assay: Effect on fingolimod-induced shortening of AERP in guinea pig model assessed as prolongation of shortened AERP at 3 mg/kg, iv measured at 20 to 30 mins; assay type: functional, organism-based; conditions: time 20-30 min
[10] = Toxicity in langendorff-perfused guinea pig heart assessed as effect on PR interval at 10 uM; assay type: tissue-based, Cavia porcellus
[11] = Toxicity in langendorff-perfused guinea pig heart assessed as effect on coronary artery perfusion pressure at 10 uM; assay type: tissue-based, Cavia porcellus
[12] = Toxicity in langendorff-perfused guinea pig heart assessed as effect on QT interval at 10 uM; assay type: tissue-based, Cavia porcellus
[13] = Toxicity in langendorff-perfused guinea pig heart assessed as effect on left ventricular action potential duration at 10 uM; assay type: tissue-based, Cavia porcellus
[14] = Toxicity in langendorff-perfused guinea pig heart assessed as effect on left atrial action potential duration at 10 uM; assay type: tissue-based, Cavia porcellus
[15] = biological target: Sodium channel protein type 5 subunit alpha (Homo sapiens, UniProt Q14524); assay: Inhibition of recombinant human Nav1.5; assay type: toxicity
Sodium channel protein type 5 subunit alpha, sequence (Q14524 whole entry): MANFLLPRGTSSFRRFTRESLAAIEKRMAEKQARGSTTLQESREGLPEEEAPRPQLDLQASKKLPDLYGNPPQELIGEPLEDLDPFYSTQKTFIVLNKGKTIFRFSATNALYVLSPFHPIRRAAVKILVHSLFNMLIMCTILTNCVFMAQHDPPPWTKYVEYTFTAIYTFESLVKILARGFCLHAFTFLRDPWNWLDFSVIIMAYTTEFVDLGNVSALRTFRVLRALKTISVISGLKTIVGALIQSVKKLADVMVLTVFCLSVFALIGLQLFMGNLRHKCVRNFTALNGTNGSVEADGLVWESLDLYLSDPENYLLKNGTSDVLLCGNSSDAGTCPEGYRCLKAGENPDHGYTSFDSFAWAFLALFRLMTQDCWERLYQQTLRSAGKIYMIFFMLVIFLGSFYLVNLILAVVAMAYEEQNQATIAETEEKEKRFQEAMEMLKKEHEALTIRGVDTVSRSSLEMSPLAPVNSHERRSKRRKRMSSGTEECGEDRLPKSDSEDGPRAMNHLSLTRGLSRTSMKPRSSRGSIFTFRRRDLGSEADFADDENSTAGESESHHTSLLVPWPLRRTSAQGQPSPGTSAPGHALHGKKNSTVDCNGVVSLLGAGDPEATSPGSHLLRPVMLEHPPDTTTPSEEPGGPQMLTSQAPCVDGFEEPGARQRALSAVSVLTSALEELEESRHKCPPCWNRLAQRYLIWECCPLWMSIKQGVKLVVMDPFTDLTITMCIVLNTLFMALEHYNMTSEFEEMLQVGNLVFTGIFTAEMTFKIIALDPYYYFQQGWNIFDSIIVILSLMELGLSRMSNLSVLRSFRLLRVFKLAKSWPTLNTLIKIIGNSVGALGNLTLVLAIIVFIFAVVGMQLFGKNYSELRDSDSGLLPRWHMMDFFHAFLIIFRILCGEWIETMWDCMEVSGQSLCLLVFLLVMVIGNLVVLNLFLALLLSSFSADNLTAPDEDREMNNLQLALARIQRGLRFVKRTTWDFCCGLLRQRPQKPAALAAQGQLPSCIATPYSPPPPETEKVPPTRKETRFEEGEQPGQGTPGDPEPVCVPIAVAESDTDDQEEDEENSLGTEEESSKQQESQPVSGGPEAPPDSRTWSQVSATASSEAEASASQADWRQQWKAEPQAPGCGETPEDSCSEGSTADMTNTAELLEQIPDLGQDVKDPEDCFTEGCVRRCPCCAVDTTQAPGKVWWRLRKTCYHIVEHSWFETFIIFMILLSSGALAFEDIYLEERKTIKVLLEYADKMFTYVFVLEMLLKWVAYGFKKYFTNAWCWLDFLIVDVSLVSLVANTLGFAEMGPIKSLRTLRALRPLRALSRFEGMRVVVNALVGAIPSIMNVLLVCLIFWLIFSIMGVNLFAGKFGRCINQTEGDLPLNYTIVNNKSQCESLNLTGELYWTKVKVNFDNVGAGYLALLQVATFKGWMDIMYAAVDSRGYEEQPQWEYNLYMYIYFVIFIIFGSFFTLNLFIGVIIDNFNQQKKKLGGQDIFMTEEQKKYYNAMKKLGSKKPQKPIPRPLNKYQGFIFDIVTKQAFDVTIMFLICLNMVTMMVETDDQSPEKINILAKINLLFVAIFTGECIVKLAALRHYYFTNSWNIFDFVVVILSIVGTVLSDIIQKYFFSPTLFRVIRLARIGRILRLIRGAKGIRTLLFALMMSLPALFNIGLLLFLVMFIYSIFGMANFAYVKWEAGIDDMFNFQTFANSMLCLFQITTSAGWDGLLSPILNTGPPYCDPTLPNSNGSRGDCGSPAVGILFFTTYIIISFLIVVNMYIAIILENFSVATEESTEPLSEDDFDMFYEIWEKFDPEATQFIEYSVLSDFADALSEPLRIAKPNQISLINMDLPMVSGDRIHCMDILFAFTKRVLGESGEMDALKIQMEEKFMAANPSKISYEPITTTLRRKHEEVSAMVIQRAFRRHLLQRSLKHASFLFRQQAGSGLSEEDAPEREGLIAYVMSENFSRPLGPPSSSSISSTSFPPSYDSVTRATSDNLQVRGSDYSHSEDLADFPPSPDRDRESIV

[16] = biological target: Voltage-dependent L-type calcium channel subunit alpha-1C (Homo sapiens, UniProt Q13936); assay: Inhibition of recombinant human Cav1.2; assay type: toxicity
[17] = biological target: T2, Potassium voltage-gated channel subfamily KQT member 1 (Homo sapiens, UniProt P51787); assay: Inhibition of recombinant human KCNQ1; assay type: toxicity
T2 sequence (P51787 whole entry): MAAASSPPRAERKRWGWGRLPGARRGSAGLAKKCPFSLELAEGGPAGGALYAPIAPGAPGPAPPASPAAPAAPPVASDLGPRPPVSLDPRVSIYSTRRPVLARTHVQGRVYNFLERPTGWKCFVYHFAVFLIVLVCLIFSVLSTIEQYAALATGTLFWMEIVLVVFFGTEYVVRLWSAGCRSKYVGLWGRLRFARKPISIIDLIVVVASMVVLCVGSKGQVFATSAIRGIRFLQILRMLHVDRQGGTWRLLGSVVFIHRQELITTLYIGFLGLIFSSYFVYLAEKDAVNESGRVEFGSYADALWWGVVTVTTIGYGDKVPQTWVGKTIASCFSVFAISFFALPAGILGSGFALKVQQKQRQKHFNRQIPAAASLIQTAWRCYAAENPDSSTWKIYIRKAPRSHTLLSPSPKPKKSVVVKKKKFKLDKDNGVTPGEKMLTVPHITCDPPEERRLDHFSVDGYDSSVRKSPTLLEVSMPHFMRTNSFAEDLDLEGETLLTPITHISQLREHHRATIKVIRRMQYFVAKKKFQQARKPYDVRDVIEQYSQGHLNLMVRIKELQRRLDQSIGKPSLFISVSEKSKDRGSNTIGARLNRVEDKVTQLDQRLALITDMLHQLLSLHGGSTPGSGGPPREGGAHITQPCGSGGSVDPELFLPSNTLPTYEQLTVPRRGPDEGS

[18] = biological target: Voltage-gated inwardly rectifying potassium channel KCNH2 (Homo sapiens, UniProt Q12809); assay: Inhibition of recombinant hERG in the presence of dofetilide by competitive binding assay; assay type: toxicity
Voltage-gated inwardly rectifying potassium channel KCNH2, sequence (Q12809 whole entry): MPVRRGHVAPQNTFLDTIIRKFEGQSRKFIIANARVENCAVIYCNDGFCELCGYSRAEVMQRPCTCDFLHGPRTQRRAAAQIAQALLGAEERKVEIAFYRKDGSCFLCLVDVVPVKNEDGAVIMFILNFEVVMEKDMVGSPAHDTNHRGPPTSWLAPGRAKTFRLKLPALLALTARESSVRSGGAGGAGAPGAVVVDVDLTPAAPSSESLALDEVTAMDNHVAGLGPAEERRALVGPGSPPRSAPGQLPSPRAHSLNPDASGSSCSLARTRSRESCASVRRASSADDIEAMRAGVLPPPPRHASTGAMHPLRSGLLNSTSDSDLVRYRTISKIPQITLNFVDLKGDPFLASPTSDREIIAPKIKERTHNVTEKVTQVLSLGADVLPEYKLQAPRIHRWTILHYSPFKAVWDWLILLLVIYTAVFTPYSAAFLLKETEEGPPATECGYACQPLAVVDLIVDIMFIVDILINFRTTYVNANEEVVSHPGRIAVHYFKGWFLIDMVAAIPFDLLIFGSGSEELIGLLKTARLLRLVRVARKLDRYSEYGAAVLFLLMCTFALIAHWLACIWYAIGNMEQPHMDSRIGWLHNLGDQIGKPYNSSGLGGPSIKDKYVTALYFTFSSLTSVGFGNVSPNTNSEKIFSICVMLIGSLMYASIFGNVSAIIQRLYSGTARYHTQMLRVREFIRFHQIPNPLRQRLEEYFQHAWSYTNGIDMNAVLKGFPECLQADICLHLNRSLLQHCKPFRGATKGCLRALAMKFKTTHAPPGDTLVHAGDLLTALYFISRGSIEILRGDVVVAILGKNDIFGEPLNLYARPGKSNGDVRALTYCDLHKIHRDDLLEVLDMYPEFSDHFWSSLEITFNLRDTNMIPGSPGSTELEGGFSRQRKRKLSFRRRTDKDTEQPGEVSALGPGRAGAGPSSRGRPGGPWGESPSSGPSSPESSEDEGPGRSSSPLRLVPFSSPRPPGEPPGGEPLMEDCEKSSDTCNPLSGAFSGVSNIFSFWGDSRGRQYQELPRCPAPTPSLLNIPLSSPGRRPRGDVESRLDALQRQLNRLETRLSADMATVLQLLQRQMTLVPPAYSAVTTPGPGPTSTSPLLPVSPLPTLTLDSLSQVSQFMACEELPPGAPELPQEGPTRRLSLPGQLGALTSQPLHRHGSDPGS

[19] = Equilibrium solubility of the compound at pH 7.4; assay type: physicochemical; conditions: buffer
[20] = Brain to plasma ratio in iv dosed rat measured after 30 mins; assay type: ADME, organism-based; conditions: read-out: BPR
[21] = biological target: T3, Kir3.1/Kir3.2 (Homo sapiens, UniProt P48051+P48549); assay: Inhibition of GIRK1/2 (unknown origin) channel; assay type: protein-complex assay
T3 sequence (P48549 whole entry): T1 sequence (P48549 whole entry)
T3 sequence (P48051 whole entry): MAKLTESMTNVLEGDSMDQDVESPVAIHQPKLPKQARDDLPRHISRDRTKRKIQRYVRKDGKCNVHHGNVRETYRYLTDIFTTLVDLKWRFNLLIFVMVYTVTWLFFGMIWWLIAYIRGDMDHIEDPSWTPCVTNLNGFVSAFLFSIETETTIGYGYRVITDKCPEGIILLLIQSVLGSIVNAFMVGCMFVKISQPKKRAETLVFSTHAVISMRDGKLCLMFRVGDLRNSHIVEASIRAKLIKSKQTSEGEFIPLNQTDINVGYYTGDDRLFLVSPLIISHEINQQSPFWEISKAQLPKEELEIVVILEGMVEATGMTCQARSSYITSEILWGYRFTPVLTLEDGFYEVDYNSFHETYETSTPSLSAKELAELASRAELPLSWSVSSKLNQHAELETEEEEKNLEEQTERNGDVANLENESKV

[22] = Toxicity in rat assessed as NOAEL administered as single dose; conditions: in vivo
[23] = Toxicity in rat assessed as NOAEL administered as repeated dose for 6 days; conditions: in vivo, time 6 day
[24] = Cmax in rat administered as single dose; assay type: ADME; conditions: in vivo
[25] = Cmax in rat administered as repeated dose for 6 days; assay type: ADME; design: time 6 day; conditions: in vivo
[26] = biological target: T3, Kir3.1/Kir3.2; assay: Inhibition of recombinant human GIRK1/2 channel; assay type: protein-complex assay
[27] = Intrinsic clearance in human liver microsomes; assay type: ADME, Microsome; conditions: read-out: CLH
[28] = Intrinsic clearance in rat liver microsomes; assay type: ADME, Microsome; conditions: read-out: CLH
[29] = Toxicity in iv dosed rat assessed as neurobehavioral disturbances by measuring convulsions; assay type: organism-based; conditions: in vivo
[30] = Toxicity in iv dosed rat assessed as neurobehavioral disturbances by measuring increase in motor activity; assay type: organism-based; conditions: in vivo
[31] = Brain to plasma ratio in rat; assay type: ADME; conditions: read-out: BPR

With `Cc1cc(=O)c2c(OCCO)ncc(Cl)c2n1-c1c(Cl)cccc1Cl` the solubility [1] was 430 µM (≈ 172 µg/mL), the Ratio [2] was 0.7 and the Papp A→B [3] was 32.6 ×10⁻⁶ cm/s.
With `COc1cc(Cl)c(-n2c(C)cc(=O)c3c(F)cncc32)c(Cl)c1` the IC50 [4] was 0.002 µM, the solubility [1] was 46 µM (≈ 16.2 µg/mL) and the Ratio [2] was 1.1. It also gave a Papp A→B [3] of 39.1 ×10⁻⁶ cm/s.
With `Cc1cc(=O)c2c(OCC(O)COCC(O)CO)ncc(Cl)c2n1-c1c(Cl)cccc1Cl` (stereo not drawn) the solubility [1] was 720 µM (≈ 363 µg/mL), the Ratio [2] was 15 and the Papp A→B [3] was 7.5 ×10⁻⁶ cm/s.
`O=c1cc(CO)n(-c2c(Cl)cccc2Cl)c2c(Cl)cnc(OC[C@H](O)CO)c12` showed a half-life [5] of 1.3 h, a clearance [6] of 35 mL/min/kg and an EC90 [7] of 1.2 µM. For the same compound, the Activity [8] was “Active”, the Activity [9] was “Active” and the Activity [10] was “Non-Toxic”. For the same compound, the Activity [11] was “Non-Toxic”, the Activity [12] was “Non-Toxic” and the Activity [13] was “Non-Toxic”. The Activity [14] was “Non-Toxic”, the IC50 [4] was 0.1 µM and the IC50 [15] was over 50 µM. The IC50 [16] was over 50 µM, the IC50 [17] was over 50 µM and the IC50 [18] was over 50 µM. For the same compound, the Ratio [2] was 13.5, the Papp A→B [3] was 8.7 ×10⁻⁶ cm/s and the solubility thermodynamic [19] was 1000 µM (≈ 446 µg/mL). It also gave a Kp at 0.5 h [20] of 0.02, an IC50 [21] of 0.1 µM and an NOAEL [22] of 75 mg/kg. For the same compound, the NOAEL at 144 h [23] was 75 mg/kg, the Cmax [24] was 193 µM and the Cmax [25] was 193 µM.
In the case of `Cc1cc(=O)c2c(F)cncc2n1-c1c(Cl)cc(C#CCO)cc1Cl`, the IC50 [4] is reported as 0.14 µM, the solubility [1] is reported as 170 µM (≈ 64.1 µg/mL) and the Ratio [2] is reported as 1.7. For the same compound, the Papp A→B [3] was 26.6 ×10⁻⁶ cm/s.
Work on `Cc1cc(=O)c2c(F)cncc2n1-c1c(Cl)cc(C#N)cc1Cl` yielded an IC50 [4] of 0.19 µM, an IC50 [26] of 0.2 µM and a solubility [1] of 52 µM (≈ 18.1 µg/mL). It also gave a microsomal CLint [27] of 12 µL/min/mg, a microsomal CLint [28] of 18 µL/min/mg and an IC50 [15] of over 50 µM. The IC50 [16] was over 50 µM, the IC50 [17] was over 50 µM and the IC50 [18] was over 30 µM. The Ratio [2] was 1.8, the Papp A→B [3] was 13.9 ×10⁻⁶ cm/s and the Activity [29] was “Toxic”. The Activity [30] was “Toxic”.
In the case of `CS(=O)(=O)CCCOc1ncc(Cl)c2c1c(=O)cc(CO)n2-c1c(Cl)cccc1Cl`, the IC50 [4] is reported as 0.1 µM, the solubility [1] is reported as 500 µM (≈ 246 µg/mL) and the Ratio [2] is reported as 40.7. For the same compound, the Papp A→B [3] was 10.1 ×10⁻⁶ cm/s.
Compound `COc1ncc(C)c2c1c(=O)cc(CO)n2-c1c(Cl)cccc1Cl` has an IC50 [4] of 0.29 µM, a solubility [1] of 280 µM (≈ 102 µg/mL) and a Papp A→B [3] of 8.5 ×10⁻⁶ cm/s.
`Cc1cc(=O)c2c(F)cncc2n1-c1c(Cl)cc(OCC(O)CO)cc1Cl` (stereo not drawn) showed an IC50 [4] of 0.011 µM, a solubility [1] of 660 µM (≈ 273 µg/mL) and a Ratio [2] of 0.9. It also gave a Papp A→B [3] of 31 ×10⁻⁶ cm/s and a Kp [31] of 1.
